Test results taken from patent US20060141078A1, “Composition comprising a rice protein hydrolysate and an agent for increasing glycosaminoglycan synthesis” (L'OREAL, priority 2004, published 2006).

Tested on: adipocytes
Assay: Hydrolysis of adipocyte triglycerides: release of non-esterified fatty acids (NEFA) into the medium (lipolysis)
Assay type: cell-based
Settings: for % activity vs Control: untreated control = 100
Protocol: The adipocytes were isolated from an abdominal plasty and then incubated in the presence of collagenase, washed and taken up in test medium.
We then added the adipocyte suspension and the mixtures were incubated at 37° C. The NEFAs were assayed in the fractions of sub-adipocyte medium, after decantation. The assay was performed using an NEFA-C kit according to the manufacturer's instructions.
Two controls (a positive and a negative) of absence of interference of the product with the NEFA assay were performed.

Compound	NEFA (Example 1, 1 μM) [µM]	% activity vs Control (Example 1, 1 μM) [%]	NEFA (Example 2, 1 μM) [µM]	% activity vs Control (Example 2, 1 μM) [%]	NEFA (Example 1, 1 mM) [µM]	% activity vs Control (Example 1, 1 mM) [%]	NEFA (Example 2, 1 mM) [µM]	% activity vs Control (Example 2, 1 mM) [%]
CC(C)NCC(O)c1ccc(O)c(O)c1 (centres unmarked) [Isoproterenol, isoproterenol]	472.3	600	613.3	1849	–	–	–	–
Cn1c(=O)c2[nH]cnc2n(C)c1=O [Theophylline, theophylline]	–	–	–	–	496.3	630	626.3	1888
